In data set [1] the target is Metabotropic glutamate receptor 5 (Rattus norvegicus, UniProt P31424). In words: Antagonistic activity at rat mGluR5 expressed in CHO cells assessed as inhibition of quisqualate stimulated calcium mobilization by FLIPR technology. The format is functional, cell-based.
The test system of data set [2] is Rattus norvegicus. In words: Effect on rat monosodium iodoacetate model of osteoarthritis pain assessed as inhibition of change in hind paw weight at 10 mg/kg, po after 2 hrs. In kind it is organism-based. Also on record: dose 10 mg/kg, route oral. Conditions: in vivo; call rule not given here.
In data set [3] the test system is Rattus norvegicus. In words: Effect on rat monosodium iodoacetate model of osteoarthritis pain assessed as inhibition of change in hind paw weight at 10 mg/kg, po after 4 hrs. The format is organism-based. Further details: dose 10 mg/kg, route oral. Conditions: in vivo.

Sequence of Metabotropic glutamate receptor 5 (P31424 whole entry): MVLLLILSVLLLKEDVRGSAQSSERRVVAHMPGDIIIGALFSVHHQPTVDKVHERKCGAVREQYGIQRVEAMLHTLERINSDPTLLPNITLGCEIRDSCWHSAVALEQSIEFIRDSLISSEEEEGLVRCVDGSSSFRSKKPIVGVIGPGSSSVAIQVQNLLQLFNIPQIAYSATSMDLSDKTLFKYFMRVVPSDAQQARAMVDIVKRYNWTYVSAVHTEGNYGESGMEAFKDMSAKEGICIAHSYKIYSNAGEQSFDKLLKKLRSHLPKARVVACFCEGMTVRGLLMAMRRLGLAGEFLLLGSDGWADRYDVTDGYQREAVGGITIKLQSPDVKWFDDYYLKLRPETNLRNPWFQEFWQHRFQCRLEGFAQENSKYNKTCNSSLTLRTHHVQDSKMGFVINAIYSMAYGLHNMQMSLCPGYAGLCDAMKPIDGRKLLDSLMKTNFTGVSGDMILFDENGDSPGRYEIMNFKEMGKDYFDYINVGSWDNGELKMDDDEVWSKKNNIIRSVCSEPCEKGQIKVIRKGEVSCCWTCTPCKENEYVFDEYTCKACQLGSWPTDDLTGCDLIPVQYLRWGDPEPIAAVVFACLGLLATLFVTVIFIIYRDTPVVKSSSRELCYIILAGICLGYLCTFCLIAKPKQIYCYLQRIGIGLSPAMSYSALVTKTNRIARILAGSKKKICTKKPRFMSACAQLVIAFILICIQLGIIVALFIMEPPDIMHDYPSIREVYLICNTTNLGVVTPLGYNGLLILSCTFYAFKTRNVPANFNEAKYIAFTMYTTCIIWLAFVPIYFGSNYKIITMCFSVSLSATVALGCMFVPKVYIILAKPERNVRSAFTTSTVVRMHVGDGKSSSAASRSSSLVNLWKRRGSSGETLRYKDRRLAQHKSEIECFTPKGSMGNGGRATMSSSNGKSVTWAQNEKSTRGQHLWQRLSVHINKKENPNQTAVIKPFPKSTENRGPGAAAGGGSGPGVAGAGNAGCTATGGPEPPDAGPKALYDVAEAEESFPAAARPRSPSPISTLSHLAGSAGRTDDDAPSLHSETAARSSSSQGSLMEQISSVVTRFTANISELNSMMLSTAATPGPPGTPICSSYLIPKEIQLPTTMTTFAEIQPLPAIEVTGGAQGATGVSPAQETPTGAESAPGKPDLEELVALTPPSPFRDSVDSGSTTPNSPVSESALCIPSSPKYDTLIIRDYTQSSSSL

As usually defined, the IC50 is the concentration that inhibits the measured activity by half. For `COc1cccc(-c2ncc3ccc(C)nc3n2)c1`, the IC50 in data set [1] is 1.5 µM.

As for `Cc1ccc2cnc(-c3cccc(C#N)c3)nc2n1`, the IC50 in data set [1] amounted to 0.24 µM.

Turning to `Cc1ccc2cnc(-c3cccc(S(C)(=O)=O)c3)nc2n1`, the half-inhibitory concentration (IC50) in data set [1] was above 30 µM.

Take `COc1ccccc1-c1ncc2ccc(C)nc2n1`: in data set [1], the IC50 is above 30 µM.

Take `Cc1cccc(-c2ncc3ccc(C)nc3n2)c1`: the IC50 in data set [1] was 0.053 µM.

Take `COC(=O)c1ccc(-c2ncc3ccc(C)nc3n2)cc1`: the IC50 in data set [1] was above 30 µM.

Regarding `Cc1ccc2cnc(-c3ccc(Br)cc3)nc2n1`, in data set [1], the IC50 is above 30 µM.

Turning to `COc1cc(-c2ncc3ccc(C)nc3n2)cc(OC)c1OC`, the IC50 in data set [1] was above 30 µM.

Consider `Brc1cccc(-c2ncc3cccnc3n2)c1`, for which the IC50 in data set [1] is 0.333 µM.

Regarding `COc1cc(C#N)cc(-c2ncc3cccnc3n2)c1`, in data set [1], the IC50 was 0.00495 µM.

As to `Cc1cc(F)cc(-c2ncc3cccnc3n2)c1`, the IC50 in data set [1] was found to be 0.321 µM.

`Cc1ccc2cnc(-c3ccc(C#N)cc3)nc2n1`: the IC50 in data set [1] is above 30 µM.

For `Cc1ccc2cnc(-c3ccc(Cl)c(Cl)c3)nc2n1`, the IC50 in data set [1] was above 30 µM.

Turning to `Cc1ccc2cnc(-c3ccc(Cl)cc3Cl)nc2n1`, in data set [1], the IC50 was above 30 µM.

On to `Cc1ccc2cnc(-c3cc(Cl)cc(Cl)c3)nc2n1`, for which, in data set [1], the IC50 is 0.00072 µM.

For the compound `COc1cc(OC)cc(-c2ncc3ccc(C)nc3n2)c1`, the IC50 in data set [1] turned out to be 0.179 µM.

Take `N#Cc1cccc(-c2ncc3cccnc3n2)c1`: the IC50 in data set [1] is above 26.1 µM.

Turning to `Clc1cc(Cl)cc(-c2ncc3cccnc3n2)c1`, the IC50 in data set [1] turned out to be 0.228 µM.

For `Cc1cc(F)cc(-c2ncc3ccc(C)nc3n2)c1`, the IC50 in data set [1] was determined as 0.0397 µM.

In the case of `COc1cc(C#N)cc(-c2ncc3ccc(C)nc3n2)c1`, the outcome in data set [2] and in data set [3] was Active. In addition, the IC50 in data set [1] turned out to be 0.0012 µM.

On to `Cc1ccc2cnc(-c3ccccc3)nc2n1`, for which, in data set [1], the IC50 was 2.7 µM.

For the compound `Cc1ccc2cnc(-c3cccc(CN)c3)nc2n1`, the IC50 in data set [1] is above 30 µM.

As for `Cc1ccc2cnc(-c3cccc(Br)c3)nc2n1`, the IC50 in data set [1] is 0.038 µM.

(Values after ChEMBL document CHEMBL1149709, “Synthesis and SAR of 2-aryl pyrido[2,3-d]pyrimidines as potent mGlu5 receptor antagonists” (Bioorg Med Chem Lett, 2007).)
